Tests used:
[1] = test system: pregnant women with major depressive disorder; assay: Depression level on the 17-item Hamilton Rating Scale for Depression; type: in vivo, human; conditions: for Mean HRS-D score: fluoxetine 10 to 80 mg daily
[2] = cited from earlier work
[3] = among the 16 subjects with 2 or more repeated depression scores

With `CNCCC(Oc1ccc(C(F)(F)F)cc1)c1ccccc1` (stereo not drawn) [FLX, fluoxetine] the “Mean HRS-D score” value ([1]; 12 weeks postpartum) was 7.6 ± 6.5, the “Mean HRS-D score” value ([1]; 20 weeks of gestation) was 7.3 ± 3.3 and the “Mean HRS-D score” value ([1]; 30 weeks of gestation) was 8.7 ± 5.6. For the same compound, the “Mean HRS-D score” value ([1]; 36 weeks of gestation) was 7.1 ± 3.2, the “Subjects with mild to moderate depression levels (HRS-D 12–22)” value [1, 3] was 3 subjects and the “Subjects with remitted depression (HRS-D ≤8)” value [1, 3] was 13 subjects. The “Mean HRS-D score” value ([1]; during delivery) was 8.3 ± 5.9, the Expected half-life [2] was 48 to 96 h and the “Time to reach steady-state concentration” value [2] was no more than 23 days.

Reference: publication PMC3109731 (Journal of clinical psychopharmacology, 2010)
